From patent US11236069B2, “KIF18A inhibitors” (AMGEN INC., priority 2018, dated 2022)

Molecular target: Recombinant human KIF18A (1-467 His-tagged) protein (Homo sapiens (Human), UniProt Q8NI77)
Experiment: KIF18A Enzyme Assay: microtubule-stimulated ATPase activity (ADP-Glo)
Conditions: read-out: KIF18A ATPase IC50; 30 nM KIF18A, 30 μg/mL pig microtubules, ATP at Km 75 μM, ADP-Glo luminescence
Description: KIF18A Enzyme Assay: Microtubule-stimulated ATPase activity assay is used to measure KIF18A enzyme activity after treatment with compound. Compounds were 2-fold serially diluted in DMSO (Sigma Inc) over 22-point concentration range. […] The assay measures ADP formed from the ATPase reaction.

Recombinant human KIF18A (1-467 His-tagged) protein, sequence (Q8NI77 1-467): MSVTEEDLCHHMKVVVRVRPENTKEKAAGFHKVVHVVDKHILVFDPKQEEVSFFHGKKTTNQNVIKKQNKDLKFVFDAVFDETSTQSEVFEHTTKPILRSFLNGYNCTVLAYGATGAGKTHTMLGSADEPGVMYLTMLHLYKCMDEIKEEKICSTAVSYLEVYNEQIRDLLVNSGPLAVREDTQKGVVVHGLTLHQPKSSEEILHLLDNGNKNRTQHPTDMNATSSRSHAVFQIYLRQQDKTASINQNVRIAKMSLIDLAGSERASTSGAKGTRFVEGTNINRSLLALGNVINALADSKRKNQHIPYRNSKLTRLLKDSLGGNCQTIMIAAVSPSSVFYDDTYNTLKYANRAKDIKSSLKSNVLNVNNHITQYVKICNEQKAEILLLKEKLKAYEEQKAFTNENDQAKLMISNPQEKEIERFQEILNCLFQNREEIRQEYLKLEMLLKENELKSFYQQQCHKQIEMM
Recombinant human KIF18A (1-467 His-tagged) protein, sequence (P02550 whole entry partner): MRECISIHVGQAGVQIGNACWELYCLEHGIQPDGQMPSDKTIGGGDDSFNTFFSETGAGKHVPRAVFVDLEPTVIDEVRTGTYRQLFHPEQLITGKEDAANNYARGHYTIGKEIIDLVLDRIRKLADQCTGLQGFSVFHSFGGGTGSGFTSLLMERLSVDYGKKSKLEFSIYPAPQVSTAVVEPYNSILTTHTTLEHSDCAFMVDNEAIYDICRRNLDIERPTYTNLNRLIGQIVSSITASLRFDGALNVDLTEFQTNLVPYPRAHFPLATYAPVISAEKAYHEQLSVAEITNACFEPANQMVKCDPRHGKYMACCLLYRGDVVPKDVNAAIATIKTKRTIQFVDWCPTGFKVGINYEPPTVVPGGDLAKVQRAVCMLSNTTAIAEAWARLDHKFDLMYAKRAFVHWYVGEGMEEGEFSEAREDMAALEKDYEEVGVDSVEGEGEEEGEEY
Recombinant human KIF18A (1-467 His-tagged) protein, sequence (P02554 whole entry partner): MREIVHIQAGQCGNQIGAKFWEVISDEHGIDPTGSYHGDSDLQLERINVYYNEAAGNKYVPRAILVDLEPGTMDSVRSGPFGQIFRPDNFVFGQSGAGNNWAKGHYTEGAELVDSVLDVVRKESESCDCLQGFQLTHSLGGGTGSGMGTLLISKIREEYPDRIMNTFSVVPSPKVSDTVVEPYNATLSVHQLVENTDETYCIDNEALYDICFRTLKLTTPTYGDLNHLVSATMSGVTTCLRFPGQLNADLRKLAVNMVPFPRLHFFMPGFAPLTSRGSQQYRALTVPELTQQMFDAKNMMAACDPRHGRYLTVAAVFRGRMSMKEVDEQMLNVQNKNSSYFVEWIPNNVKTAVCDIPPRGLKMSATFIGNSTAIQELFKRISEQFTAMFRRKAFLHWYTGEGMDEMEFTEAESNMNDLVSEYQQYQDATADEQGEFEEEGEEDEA

Row | SMILES | IC50
1 | Cc1cc(NC(=O)c2ccc(NS(=O)(=O)CCO)cc2N2CCC3(CC2)CC3)cc(N2CCC(F)(F)CC2)n1 [Example 6-30, N-(2-(4,4-Difluoropiperidin-1-yl)-6-methylpyridin-4-yl)-4-((2-hydroxyethyl)sulfonamido)-2-(6-azaspiro[2.5]octan-6-yl)benzamide] | 38.4 nM
2 | Cc1cc(NC(=O)c2ccc(NS(=O)(=O)C3([C@@H](C)O)CC3)cc2N2CCC3(CC2)CC3)nc(N2CCC(F)(F)CC2)n1 [Example 6-31-1, (R)-N-(2-(4,4-Difluoropiperidin-1-yl)-6-methylpyrimidin-4-yl)-4-((1-(1-hydroxyethyl)cyclopropane)-1-sulfonamido)-2-(6-azaspiro[2.5]octan-6-yl)benzamide] | 324 nM
3 | Cc1cc(NC(=O)c2ccc(NS(=O)(=O)C3([C@H](C)O)CC3)cc2N2CCC3(CC2)CC3)nc(N2CCC(F)(F)CC2)n1 [Example 6-31-2, (S)-N-(2-(4,4-Difluoropiperidin-1-yl)-6-methylpyrimidin-4-yl)-4-((1-(1-hydroxyethyl)cyclopropane)-1-sulfonamido)-2-(6-azaspiro[2.5]octan-6-yl)benzamide] | 281 nM
4 | Cc1cc(NC(=O)c2ccc(NS(=O)(=O)C[C@@H](C)O)cc2N2CCC3(CC2)CC3)nc(N2CCC(F)(F)CC2)n1 [Example 6-32-1, (R)-N-(2-(4,4-Difluoropiperidin-1-yl)-6-methylpyrimidin-4-yl)-4-((2-hydroxypropyl)sulfonamido)-2-(6-azaspiro[2.5]octan-6-yl)benzamide] | 112 nM
5 | Cc1cc(NC(=O)c2ccc(NS(=O)(=O)C[C@H](C)O)cc2N2CCC3(CC2)CC3)nc(N2CCC(F)(F)CC2)n1 [Example 6-32-2, (S)-N-(2-(4,4-Difluoropiperidin-1-yl)-6-methylpyrimidin-4-yl)-4-((2-hydroxypropyl)sulfonamido)-2-(6-azaspiro[2.5]octan-6-yl)benzamide] | 141 nM
6 | C[C@H](O)CS(=O)(=O)Nc1ccc(C(=O)Nc2ccnc(N3CCO[C@H](C)C3)n2)c(N2CCC3(CC2)CC3)c1 [Example 6-33-1, 4-(((S)-2-Hydroxypropyl)sulfonamido)-N-(2-((R)-2-methylmorpholino)pyrimidin-4-yl)-2-(6-azaspiro[2.5]octan-6-yl)benzamide] | 115 nM
7 | C[C@@H]1CN(c2nccc(NC(=O)c3ccc(NS(=O)(=O)C[C@@H](C)O)cc3N3CCC4(CC3)CC4)n2)CCO1 [Example 6-33-2, 4-(((R)-2-hydroxypropyl)sulfonamido)-N-(2-((R)-2-methylmorpholino)pyrimidin-4-yl)-2-(6-azaspiro[2.5]octan-6-yl)benzamide] | 86 nM
8 | Cc1cc(NC(=O)c2cc(Cl)c(NS(=O)(=O)CCO)cc2N2CCC3(CC2)CC3)nc(N2CCC(F)(F)CC2)n1 [Example 6-34, 5-Chloro-N-(2-(4,4-difluoropiperidin-1-yl)-6-methylpyrimidin-4-yl)-4-((2-hydroxyethyl)sulfonamido)-2-(6-azaspiro[2.5]octan-6-yl)benzamide] | 92.2 nM
9 | Cc1cc(NC(=O)c2cc(C)c(NS(=O)(=O)CCO)cc2N2CCC3(CC2)CC3)nc(N2CCC(F)(F)CC2)n1 [Example 6-35, N-(2-(4,4-Difluoropiperidin-1-yl)-6-methylpyrimdin-4-yl)-4-((2-hydroxyethyl)sulfonamido)-5-methyl-2-(6-azaspiro[2.5]octan-6-yl)benzamide] | 144 nM
10 | COc1cc(C(=O)Nc2cc(C)nc(N3CCC(F)(F)CC3)n2)c(N2CCC3(CC2)CC3)cc1NS(=O)(=O)CCO [Example 6-36, N-(2-(4,4-Difluoropiperidin-1-yl)-6-methylpyrimidin-4-yl)-4-((2-hydroxyethyl)sulfonamido)-5-methoxy-2-(6-azaspiro[2.5]octan-6-yl)benzamide] | 114 nM
11 | CC(C)(O)c1cc(NC(=O)c2ccc(NS(=O)(=O)CCO)cc2N2CCC3(CC2)CC3)nc(N2CCC(F)(F)CC2)n1 [Example 6-37, N-(2-(4,4-Difluoropiperidin-1-yl)-6-(2-hydroxypropan-2-yl)pyrimidin-4-yl)-4-((2-hydroxyethyl)sulfonamido)-2-(6-azaspiro[2.5]octan-6-yl)benzamide] | 125 nM
12 | CCc1cc(NC(=O)c2ccc(NS(=O)(=O)CCO)cc2N2CCC3(CC2)CC3)nc(N2CCC(F)(F)CC2)n1 [Example 6-38, N-(2-(4,4-Difluoropiperidin-1-yl)-6-ethylpyrimidin-4-yl)-4-((2-hydroxyethyl)sulfonamido)-2-(6-azaspiro[2.5]octan-6-yl)benzamide] | 60 nM
13 | O=C(Nc1cc(C2CC2)nc(N2CCC(F)(F)CC2)n1)c1ccc(NS(=O)(=O)CCO)cc1N1CCC2(CC1)CC2 [Example 6-39, N-(6-Cyclopropyl-2-(4,4-difluoropiperidin-1-yl)pyrimidin-4-yl)-4-((2-hydroxyethyl)sulfonamido)-2-(6-azaspiro[2.5]octan-6-yl)benzamide] | 225 nM
14 | C[C@@H]1CN(c2nc(NC(=O)c3ccc(NS(=O)(=O)CCO)cc3N3CCC4(CC3)CC4)cc(C(C)(C)O)n2)CCO1 [Example 6-40, (R)-4-((2-Hydroxyethyl)sulfonamido)-N-(6-(2-hydroxypropan-2-yl)-2-(2-methylmorpholino)pyrimidin-4-yl)-2-(6-azaspiro[2.5]octan-6-yl)benzamide] | 161 nM
15 | Cc1cc(NC(=O)c2ccc(NS(=O)(=O)CCO)cc2N2CCC3(CC2)CC3)nc(N2CC(F)(F)C2)n1 [Example 7, N-(2-(3,3-Difluoroazetidin-1-yl)-6-methylpyrimidin-4-yl)-4-((2-hydroxyethyl)sulfonamido)-2-(6-azaspiro[2.5]octan-6-yl)benzamide] | 23 nM
16 | Cc1cc(NC(=O)c2ccc(NS(=O)(=O)CCO)cc2N2CCC3(CC2)CC3)nc(OC2CCC2)n1 [Example 11-4, N-(2-Cyclobutoxy-6-methylpyrimidin-4-yl)-4-((2-hydroxyethyl)sulfonamido)-2-(6-azaspiro[2.5]octan-6-yl)benzamide] | 18 nM

Second part, the molecule after the results:

Row | IC50 | SMILES
17 | 78 nM | C[C@@H]1CN(c2nccc(NC(=O)c3cc(F)c(NS(=O)(=O)CCO)cc3N3CCC4(CC3)CC4)n2)CCO1 [Example 9-1, (R)-5-Fluoro-4-((2-hydroxyethyl)sulfonamido)-N-(2-(2-methylmorpholino)pyrimidin-4-yl)-2-(6-azaspiro[2.5]octan-6-yl)benzamide]
18 | 158 nM | Cc1cc(NC(=O)c2cc(F)c(NS(=O)(=O)CCO)cc2N2CCC3(CC2)CC3)nc(N2CCO[C@H](C)C2)n1 [Example 9-2, (R)-5-Fluoro-4-((2-hydroxyethyl)sulfonamido)-N-(6-methyl-2-(2-methylmorpholino)pyrimidin-4-yl)-2-(6-azaspiro[2.5]octan-6-yl)benzamide]
19 | 37 nM | C[C@H]1CN(c2nccc(NC(=O)c3ccc(NS(=O)(=O)CCO)cc3N3CCC4(CC3)CC4)n2)CCO1 [Example 11-1, (S)-4-((2-Hydroxyethyl)sulfonamido)-N-(2-(2-methylmorpholino)pyrimidin-4-yl)-2-(6-azaspiro[2.5]octan-6-yl)benzamide]
20 | 27 nM | Cc1cc(NC(=O)c2ccc(NS(=O)(=O)CCO)cc2N2CCC3(CC2)CC3)nc(C(C)C)n1 [Example 11-2, 4-((2-Hydroxyethyl)sulfonamido)-N-(2-isopropyl-6-methylpyrimidin-4-yl)-2-(6-azaspiro[2.5]octan-6-yl)benzamide]
21 | 49 nM | Cc1cc(NC(=O)c2ccc(NS(=O)(=O)CCO)cc2N2CCC3(CC2)CC3)nc(C2CC2)n1 [Example 11-3, N-(2-Cyclopropyl-6-methylpyrimidin-4-yl)-4-((2-hydroxyethyl)sulfonamido)-2-(6-azaspiro[2.5]octan-6-yl)benzamide]
22 | 32 nM | Cc1cc(NC(=O)c2ccc(NS(=O)(=O)CCO)cc2N2CCC3(CC2)CC3)nc(N2CC(F)C2)n1 [Example 11-5, N-(2-(3-Fluoroazetidin-1-yl)-6-methylpyrimidin-4-yl)-4-((2-hydroxyethyl)sulfonamido)-2-(6-azaspiro[2.5]octan-6-yl)benzamide]
23 | 68 nM | O=C(Nc1ccnc(N2CC(F)C2)n1)c1ccc(NS(=O)(=O)CCO)cc1N1CCC2(CC1)CC2 [Example 11-6, N-(2-(3-Fluoroazetidin-1-yl)pyrimidin-4-yl)-4-((2-hydroxyethyl)sulfonamido)-2-(6-azaspiro[2.5]octan-6-yl)benzamide]
24 | 23 nM | O=C(Nc1ccnc(N2CC(F)(F)C2)n1)c1ccc(NS(=O)(=O)CCO)cc1N1CCC2(CC1)CC2 [Example 11-7, N-(2-(3,3-Difluoroazetidin-1-yl)pyrimidin-4-yl)-4-((2-hydroxyethyl)sulfonamido)-2-(6-azaspiro[2.5]octan-6-yl)benzamide]
25 | 640 nM | Cc1cc(NC(=O)c2ccc(NS(=O)(=O)CCO)cc2N2CCC3(CC2)CC3)nc(N2CC3(COC3)C2)n1 [Example 11-8, 4-((2-Hydroxyethyl)sulfonamido)-N-(6-methyl-2-(2-oxa-6-azaspiro[3.3]heptan-6-yl)pyrimidin-4-yl)-2-(6-azaspiro[2.5]octan-6-yl)benzamide]
26 | 128 nM | Cc1cc(NC(=O)c2ccc(NS(=O)(=O)CCO)cc2N2CCC3(CC2)CC3)nc(N2CCC23COC3)n1 [Example 11-9, 4-((2-Hydroxyethyl)sulfonamido)-N-(6-methyl-2-(6-oxa-1-azaspiro[3.3]heptan-1-yl)pyrimidin-4-yl)-2-(6-azaspiro[2.5]octan-6-yl)benzamide]
27 | 192 nM | Cc1cc(NC(=O)c2ccc(NS(=O)(=O)CCO)cc2N2CCC3(CC2)CC3)nc(N2CC(OC(F)F)C2)n1 [Example 11-10, N-(2-(3-(Difluoromethoxy)azetidin-1-yl)-6-methylpyrimidin-4-yl)-4-((2-hydroxyethyl)sulfonamido)-2-(6-azaspiro[2.5]octan-6-yl)benzamide]
28 | 93 nM | Cc1cc(NC(=O)c2ccc(NS(=O)(=O)CCO)cc2N2CCC3(CC2)CC3)nc(N2CC(C(F)(F)F)C2)n1 [Example 11-12, 4-((2-Hydroxyethyl)sulfonamido)-N-(6-methyl-2-(3-(trifluoromethyl)azetidin-1-yl)pyrimidin-4-yl)-2-(6-azaspiro[2.5]octan-6-yl)benzamide]
